{"source": "patent US12061201B2", "about": "“Fluorescent probes for the visualization of FtsZ in gram-positive and gram-negative bacterial pathogens” (Rutgers, The State University of New Jersey, priority 2019, dated 2024)", "experiment_in_all_cases": "Fluorescence anisotropy binding of BOFP to FtsZ", "details_in_all_cases": "for Kd: 50 mM Tris-HCl (pH 7.6), 50 mM KCl", "key": {"[1]": {"molecular_target": "T1, Acinetobacter baumannii FtsZ (AbFtsZ) (Acinetobacter baumannii, UniProt V5V8B6)", "T1 sequence (V5V8B6 1-391)": "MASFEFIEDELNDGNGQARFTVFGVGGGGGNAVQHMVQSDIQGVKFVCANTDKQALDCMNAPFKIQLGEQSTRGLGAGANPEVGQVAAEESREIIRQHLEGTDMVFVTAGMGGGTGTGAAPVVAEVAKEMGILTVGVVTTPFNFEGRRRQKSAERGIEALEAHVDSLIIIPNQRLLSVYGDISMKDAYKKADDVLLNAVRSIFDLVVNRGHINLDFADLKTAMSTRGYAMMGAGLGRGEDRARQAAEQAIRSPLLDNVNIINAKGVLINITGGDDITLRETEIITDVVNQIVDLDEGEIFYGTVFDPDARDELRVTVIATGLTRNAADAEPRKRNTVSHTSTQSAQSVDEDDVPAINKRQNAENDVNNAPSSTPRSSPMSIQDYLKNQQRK", "experimental": "(§1) Fluorescence anisotropy assay for determining the affinities and thermodynamics associated with the binding of BOFP to FtsZ proteins. Fluorescence anisotropy experiments were performed using an AVIV model ATF105 spectrofluorometer at 15, 25, or 37° C. In these experiments, bandwidths were set to 4 nm in both the excitation and emission directions, with the excitation and emission wavelengths being set at 488 nm and 510 nm, respectively. BOFP (0.1 μM) was titrated with increasing concentrations (ranging from 0 to 12 μM) of FtsZ in 120 μL of buffer containing 50 mM Tris-HCl (pH 7.6) and 50 mM KCl. After each protein addition, the samples were equilibrated for 3 minutes, whereupon the fluorescence anisotropy was measured.\n(§2) [formula] In this equation, r0 is the anisotropy of the protein-free compound, r∞ is the anisotropy of the compound in the presence of an infinite concentration of FtsZ, [C]tot is the total concentration of the compound, and [P]tot is the total concentration of protein with each addition. These analyses yielded the equilibrium dissociation constant (Kd) for each binding reaction.\n(§3) The binding free energy (ΔG) at temperature T was derived from the corresponding Kd value determined at T using the following relationship:\n(§4) [formula] The binding enthalpy (ΔH) and entropy (ΔS) were derived from linear fits of the ln(1/Kd) vs. 1/T plots shown in FIGS. 3f and 5e using the following relationship:\n(§5) A quartz ultra-micro cell (Hellma) with a 2×5 mm aperture and a 15 mm center height was used for all measurements. The pathlengths in the excitation and emissions directions were 1 and 0.2 cm, respectively. All steady-state anisotropy experiments were conducted in at least triplicate, with the reported anisotropies reflecting the average values."}, "[2]": {"molecular_target": "Enterococcus faecalis FtsZ (EfsFtsZ) (Enterococcus faecalis, UniProt O08439)", "sequence (O08439 whole entry)": "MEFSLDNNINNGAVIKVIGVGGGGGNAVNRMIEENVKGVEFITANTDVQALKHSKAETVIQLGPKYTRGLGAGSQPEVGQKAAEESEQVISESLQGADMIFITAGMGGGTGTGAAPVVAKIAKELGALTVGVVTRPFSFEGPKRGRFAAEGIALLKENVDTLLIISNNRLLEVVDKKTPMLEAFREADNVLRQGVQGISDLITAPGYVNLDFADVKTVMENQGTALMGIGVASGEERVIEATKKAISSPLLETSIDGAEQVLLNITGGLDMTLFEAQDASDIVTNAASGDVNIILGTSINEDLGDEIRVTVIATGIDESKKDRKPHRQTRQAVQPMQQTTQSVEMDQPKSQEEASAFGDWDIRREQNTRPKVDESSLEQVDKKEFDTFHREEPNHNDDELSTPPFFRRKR", "experimental": "as §1, §2, §3, §4, §5"}, "[3]": {"molecular_target": "Escherichia coli FtsZ (EcFtsZ) (Escherichia coli, UniProt P0A9A6)", "sequence (P0A9A6 whole entry)": "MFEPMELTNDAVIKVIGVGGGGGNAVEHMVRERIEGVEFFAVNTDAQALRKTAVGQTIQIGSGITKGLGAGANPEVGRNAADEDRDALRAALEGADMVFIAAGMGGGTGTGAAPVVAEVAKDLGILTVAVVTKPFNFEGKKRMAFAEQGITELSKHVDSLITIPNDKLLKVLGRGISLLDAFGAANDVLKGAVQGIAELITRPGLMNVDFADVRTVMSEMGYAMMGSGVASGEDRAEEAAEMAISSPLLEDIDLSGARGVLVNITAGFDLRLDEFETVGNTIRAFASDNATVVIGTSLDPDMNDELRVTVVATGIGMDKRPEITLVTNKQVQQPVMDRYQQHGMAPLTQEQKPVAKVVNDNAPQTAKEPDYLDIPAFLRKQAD", "experimental": "as §1, §2, §3, §4, §5"}, "[4]": {"molecular_target": "Klebsiella pneumoniae FtsZ (KpFtsZ) (Klebsiella pneumoniae, UniProt A0A0H3GRR0)", "sequence (A0A0H3GRR0 entry or part of it)": "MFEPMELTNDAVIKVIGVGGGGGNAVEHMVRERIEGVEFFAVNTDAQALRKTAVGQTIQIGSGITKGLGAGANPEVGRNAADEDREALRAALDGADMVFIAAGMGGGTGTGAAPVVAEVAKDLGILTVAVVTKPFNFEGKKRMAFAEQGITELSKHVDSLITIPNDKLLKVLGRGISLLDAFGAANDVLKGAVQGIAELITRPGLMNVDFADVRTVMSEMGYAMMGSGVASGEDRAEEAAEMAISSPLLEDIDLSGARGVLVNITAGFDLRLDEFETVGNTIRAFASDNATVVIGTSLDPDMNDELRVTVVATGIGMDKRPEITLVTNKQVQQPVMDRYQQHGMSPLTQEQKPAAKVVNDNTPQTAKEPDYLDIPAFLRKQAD", "experimental": "as §1, §2, §3, §4, §5"}, "[5]": {"molecular_target": "T2, Pseudomonas aeruginosa FtsZ (PaFtsZ) (Pseudomonas aeruginosa, UniProt P47204)", "T2 sequence (P47204 1-394)": "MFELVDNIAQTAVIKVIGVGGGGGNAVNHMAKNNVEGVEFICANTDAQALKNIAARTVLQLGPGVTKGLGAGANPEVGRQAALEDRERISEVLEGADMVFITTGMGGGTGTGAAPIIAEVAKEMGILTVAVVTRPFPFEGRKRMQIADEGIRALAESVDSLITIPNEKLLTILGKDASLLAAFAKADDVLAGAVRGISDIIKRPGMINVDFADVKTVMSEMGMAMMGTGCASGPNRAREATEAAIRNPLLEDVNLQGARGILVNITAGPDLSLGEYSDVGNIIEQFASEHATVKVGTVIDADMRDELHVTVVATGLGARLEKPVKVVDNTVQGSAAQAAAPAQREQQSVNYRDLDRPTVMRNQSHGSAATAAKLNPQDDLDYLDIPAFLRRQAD", "experimental": "as §1, §2, §3, §4, §5"}, "[6]": {"molecular_target": "T3, Streptococcus agalactiae FtsZ (SagFtsZ) (Streptococcus agalactiae, UniProt Q8E183)", "T3 sequence (Q8E183 1-426)": "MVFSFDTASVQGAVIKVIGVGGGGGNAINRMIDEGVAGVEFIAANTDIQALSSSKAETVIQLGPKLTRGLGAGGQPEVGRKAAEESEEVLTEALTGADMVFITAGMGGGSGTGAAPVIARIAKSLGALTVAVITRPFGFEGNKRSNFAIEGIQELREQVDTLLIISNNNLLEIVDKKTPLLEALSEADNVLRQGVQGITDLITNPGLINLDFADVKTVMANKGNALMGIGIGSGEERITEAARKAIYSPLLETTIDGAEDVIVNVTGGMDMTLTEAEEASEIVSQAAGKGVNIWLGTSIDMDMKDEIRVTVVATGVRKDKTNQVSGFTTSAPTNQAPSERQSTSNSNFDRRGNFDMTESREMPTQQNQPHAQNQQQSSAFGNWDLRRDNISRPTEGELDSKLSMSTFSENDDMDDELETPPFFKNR", "experimental": "as §1, §2, §3, §4, §5"}, "[7]": {"molecular_target": "Streptococcus pyogenes FtsZ (SpyFtsZ) (Streptococcus pyogenes, UniProt Q99YV7)", "sequence (Q99YV7 entry or part of it)": "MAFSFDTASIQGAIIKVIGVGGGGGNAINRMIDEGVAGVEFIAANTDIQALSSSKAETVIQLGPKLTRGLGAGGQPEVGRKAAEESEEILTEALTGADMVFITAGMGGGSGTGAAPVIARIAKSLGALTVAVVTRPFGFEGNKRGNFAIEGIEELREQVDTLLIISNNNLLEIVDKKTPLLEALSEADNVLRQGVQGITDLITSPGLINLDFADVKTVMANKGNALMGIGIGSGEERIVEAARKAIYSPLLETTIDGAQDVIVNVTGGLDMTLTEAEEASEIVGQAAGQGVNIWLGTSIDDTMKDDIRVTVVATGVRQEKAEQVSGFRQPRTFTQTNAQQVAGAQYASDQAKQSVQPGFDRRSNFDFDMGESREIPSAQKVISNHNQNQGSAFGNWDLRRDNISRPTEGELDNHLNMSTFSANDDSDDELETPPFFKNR", "experimental": "as §1, §2, §3, §4, §5"}, "[8]": {"details": "linear fit of ln(1/Kd) vs. 1/T, Eq. 3"}}, "note": "Like-named read-outs stand apart in the source and are kept apart here.", "data": [{"smiles": "CC1=CC(C)=[N+]2C1=Cc1ccc(CCC(=O)OCC(Oc3ccc(F)c(C(N)=O)c3F)c3nc(-c4ccc(C(F)(F)F)cc4)c(Br)o3)n1[B-]2(F)F", "note": "(centres unmarked) [BOFP, 2-(5-bromo-4-(4-(trifluoromethyl)phenyl)-oxazol-2-yl)-2-(3-carbamoyl-2,4-difluorophenoxy)ethyl 3-(5,5-difluoro-7,9-dimethyl-5H-5λ^4,6λ^4-dipyrrolo[1,2-c:2′,1′-f][1,3,2]diazaborinin-3-yl)propanoate]", "values": [{"measurement": "ΔS contribution to the observed ΔG of binding", "setting": "[1]", "value": "> 50", "unit": "%"}, {"measurement": "Kd", "setting": "[1]; 15° C., read-out: Kd −15° C.", "value": "400 ± 30", "unit": "nM"}, {"measurement": "Kd", "setting": "[1]; 25° C., read-out: Kd −25° C.", "value": "550 ± 20", "unit": "nM"}, {"measurement": "Kd", "setting": "[1]; 37° C., read-out: Kd −37° C.", "value": "680 ± 40", "unit": "nM"}, {"measurement": "ΔH", "setting": "[1]; [8]", "value": "-4.2 ± 0.6", "unit": "kcal/mol"}, {"measurement": "ΔS", "setting": "[1]; [8]", "value": "+14.5 ± 2.1 cal/mol · K"}, {"measurement": "enthalpic contribution (ΔH) to the observed ΔG of binding", "setting": "[2]", "value": 100, "unit": "%"}, {"measurement": "Kd", "setting": "[2]; 15° C., read-out: Kd −15° C.", "value": "1720 ± 60", "unit": "nM"}, {"measurement": "Kd", "setting": "[2]; 25° C., read-out: Kd −25° C.", "value": "3050 ± 250", "unit": "nM"}, {"measurement": "Kd", "setting": "[2]; 37° C., read-out: Kd −37° C.", "value": "4620 ± 120", "unit": "nM"}, {"measurement": "ΔG", "setting": "[2]; T = 310K (37° C.), Eq. 2", "value": "-7.6 ± 0.1", "unit": "kcal/mol"}, {"measurement": "ΔH", "setting": "[2]; [8]", "value": "-7.9 ± 1.0", "unit": "kcal/mol"}, {"measurement": "ΔS", "setting": "[2]; [8]", "value": "−1.2 ± 3.3", "unit": "cal/mol · K"}, {"measurement": "ΔH contribution to the observed ΔG of binding", "setting": "[3]", "value": "> 50", "unit": "%"}, {"measurement": "Kd", "setting": "[3]; 15° C., read-out: Kd −15° C.", "value": "220 ± 30", "unit": "nM"}, {"measurement": "Kd", "setting": "[3]; 25° C., read-out: Kd −25° C.", "value": "280 ± 20", "unit": "nM"}, {"measurement": "Kd", "setting": "[3]; 37° C., read-out: Kd −37° C.", "value": "440 ± 40", "unit": "nM"}, {"measurement": "ΔG", "setting": "[3]; T = 310K (37° C.), Eq. 2", "value": "-9.0 ± 0.1", "unit": "kcal/mol"}, {"measurement": "ΔH", "setting": "[3]; [8]", "value": "-5.6 ± 0.8", "unit": "kcal/mol"}, {"measurement": "ΔS", "setting": "[3]; [8]", "value": "+11.2 ± 2.7 cal/mol · K"}, {"measurement": "ΔH contribution to the observed ΔG of binding", "setting": "[4]", "value": "> 50", "unit": "%"}, {"measurement": "Kd", "setting": "[4]; 15° C., read-out: Kd −15° C.", "value": "420 ± 50", "unit": "nM"}, {"measurement": "Kd", "setting": "[4]; 25° C., read-out: Kd −25° C.", "value": "580 ± 40", "unit": "nM"}, {"measurement": "Kd", "setting": "[4]; 37° C., read-out: Kd −37° C.", "value": "820 ± 40", "unit": "nM"}, {"measurement": "ΔG", "setting": "[4]; T = 310K (37° C.), Eq. 2", "value": "-8.6 ± 0.1", "unit": "kcal/mol"}, {"measurement": "ΔH", "setting": "[4]; [8]", "value": "-5.4 ± 0.1", "unit": "kcal/mol"}, {"measurement": "ΔS", "setting": "[4]; [8]", "value": "+10.5 ± 0.1 cal/mol · K"}, {"measurement": "ΔH contribution to the observed ΔG of binding", "setting": "[5]", "value": "> 50", "unit": "%"}, {"measurement": "Kd", "setting": "[5]; 15° C., read-out: Kd −15° C.", "value": "230 ± 20", "unit": "nM"}, {"measurement": "Kd", "setting": "[5]; 25° C., read-out: Kd −25° C.", "value": "360 ± 60", "unit": "nM"}, {"measurement": "Kd", "setting": "[5]; 37° C., read-out: Kd −37° C.", "value": "580 ± 60", "unit": "nM"}, {"measurement": "ΔG", "setting": "[5]; T = 310K (37° C.), Eq. 2", "value": "-8.8 ± 0.1", "unit": "kcal/mol"}, {"measurement": "ΔH", "setting": "[5]; [8]", "value": "-7.7 ± 0.2", "unit": "kcal/mol"}, {"measurement": "ΔS", "setting": "[5]; [8]", "value": "+3.8 + 0.6 cal/mol · K"}, {"measurement": "ΔH contribution to the observed ΔG of binding", "setting": "[6]", "value": "> 50", "unit": "%"}, {"measurement": "Kd", "setting": "[6]; 15° C., read-out: Kd −15° C.", "value": "620 ± 50", "unit": "nM"}, {"measurement": "Kd", "setting": "[6]; 25° C., read-out: Kd −25° C.", "value": "1020 ± 90", "unit": "nM"}, {"measurement": "Kd", "setting": "[6]; 37° C., read-out: Kd −37° C.", "value": "1310 ± 40", "unit": "nM"}, {"measurement": "ΔH", "setting": "[6]; [8]", "value": "-6.6 ± 0.6", "unit": "kcal/mol"}, {"measurement": "ΔS", "setting": "[6]; [8]", "value": "+5.4 ± 2.0 cal/mol · K"}, {"measurement": "ΔH contribution to the observed ΔG of binding", "setting": "[7]", "value": "> 50", "unit": "%"}, {"measurement": "Kd", "setting": "[7]; 15° C., read-out: Kd −15° C.", "value": "910 ± 60", "unit": "nM"}, {"measurement": "Kd", "setting": "[7]; 25° C., read-out: Kd −25° C.", "value": "1310 ± 80", "unit": "nM"}, {"measurement": "Kd", "setting": "[7]; 37° C., read-out: Kd −37° C.", "value": "1550 ± 80", "unit": "nM"}, {"measurement": "ΔG", "setting": "[7]; T = 310K (37° C.), Eq. 2", "value": "-8.2 ± 0.1", "unit": "kcal/mol"}, {"measurement": "ΔH", "setting": "[7]; [8]", "value": "-4.3 ± 1.1", "unit": "kcal/mol"}, {"measurement": "ΔS", "setting": "[7]; [8]", "value": "+12.8 ± 3.7 cal/mol · K"}]}]}
